Assay results published in patent US12642768B2, “Lipid nanoparticles” (Beijing Jitai Life Sciences Ltd, priority 2022, dated 2026).

Key:
[1] = Particle size and PDI of lipid nanoparticles by dynamic light scattering; type: physicochemical; details: for Particle size dispersity (PDI): LNP 50:38.5:10:1.5, N/P 6, luciferase mRNA
Procedure: (§1) Lipid nanoparticles were prepared by (1) dissolving and mixing ionizable lipid compounds, cholesterol, phospholipids and polyethylene glycolated lipids in ethanol at (molar percentages) 50%, 38.5%, 10% and 1.5%, respectively; (2) dissolving the mRNA active ingredient in 25 mM sodium acetate solution (pH=4.5); (3) using an automated high-throughput microfluidic system to mix the organic phase containing the lipid mixture and the aqueous phase containing the mRNA component in the flow ratio range of 1:1 to 1:4 at a mixing speed of 10 mL/min to 18 mL/min; (4) the prepared lipid nanoparticles (N/P ratio of 6) were diluted with phosphate buffer solution and the nanoparticle solutions were ultrafiltered to the original preparation volume using ultrafiltration tubes (purchased from Millipore) with a cut-off molecular weight of 30 kDa; and (5) the obtained nanoparticles were filtered through a sterile 0.2 μm filter membrane and then stored in a sealed glass vial at low temperature.
The particle size and particle size dispersity index (PDI) of the prepared lipid nanoparticles were measured using a Zetasizer Pro (purchased from Malvern Instruments Ltd) and a DynaPro NanoStar (purchased from Wyatt) dynamic light scattering instrument. The degree of RNA encapsulation by lipid nanoparticles was characterized by the Encapsulation Efficiency %, which reflects the degree of binding of lipid nanoparticles to RNA fragments. This parameter was measured by the method of Quant-it™ RiboGreen RNA Assay (purchased from Invitrogen). Lipid nanoparticle samples were diluted in TE buffer (10 mM Tris-HCl, 1 mM EDTA, pH=7.5). A portion of the sample solution was removed, to which 0.5% Triton (Triton X-100) was added, and then allowed to stand at 37° C. for 30 minutes. Immediately after the addition of RIBOGREEN® reaction solution, the fluorescence values were read on a Varioskan LUX multifunctional microplate reader (purchased from Thermofisher) at 485 nm for absorption and 528 nm for emission to give the encapsulation efficiency values.

[2] = Encapsulation efficiency by Quant-it RiboGreen RNA Assay; type: physicochemical; details: LNP 50:38.5:10:1.5, N/P 6, luciferase mRNA
Procedure: as §1
The particle size and particle size dispersity index (PDI) of the prepared lipid nanoparticles were measured using a Zetasizer Pro (purchased from Malvern Instruments Ltd) and a DynaPro NanoStar (purchased from Wyatt) dynamic light scattering instrument. […] This parameter was measured by the method of Quant-it™ RiboGreen RNA Assay (purchased from Invitrogen). […]

Compound | Particle size dispersity (PDI) [1] | Particle size (nm) ([1]; LNP ionizable lipid:cholesterol:DSPC:DMG-PEG2000 50:38.5:10:1.5, N/P 6, luciferase mRNA) | Encapsulation efficiency (%) [2]
CCCCCCCCCSC(=O)C(C)(C)CCCCCC(CCCCCC(C)(C)C(=O)SCCCCCCCCC)OC(=O)CC1CCN(CC)CC1 [Compound 109] | 0.06 | – | –
CCCCCCC(CCCCCC)CCOC(=O)CCC(C)(C)CCCC(CCCC(C)(C)CCC(=O)OCCC(CCCCCC)CCCCCC)OC(=O)CCCN(C)C [Compound 128] | 0.05 | – | –
CCCCCCCCCOC(=O)CCCCCCC(CCCCCCC(=O)OCC(CCCCC)CCCCCCC)OC(=O)CCCN(C)C (stereo not drawn) [D2, reference compound] | 0.20 | – | –
CCCCCCCCCOC(=O)C(C)(C)CCCCC(CCCCC(C)(C)C(=O)OCC(CCCCC)CCCCCCC)OC(=O)CCCN(C)C (stereo not drawn) [Compound 122] | 0.07 | – | –
CCCCCCCCCOC(=O)C(C)(C)CCCCCC(CCCCCC(C)(C)C(=O)SCCCCCCCCC)OC(=O)CCCN(C)C (stereo not drawn) [Compound 41] | 0.05 | – | –
CCCCCCCCCSC(=O)C(C)(C)CCCCCC(CCCCCC(C)(C)C(=O)SCCCCCCCCC)OC(=O)C1CCN(C)CC1 [Compound 106] | 0.05 | – | –
CCCCCCCCCOC(=O)C(C)(C)CCCCCCC(CCCCCCC(C)(C)C(=O)OCC(CCCCC)CCCCCCC)OC(=O)CCCN(C)C (stereo not drawn) [Compound 125] | 0.07 | – | –
CCCCCCCCCSC(=O)C(C)(C)CCCCCC(CCCCCC(C)(C)C(=O)OCC(CCCCC)CCCCCCC)OC(=O)CC1CCN(C)CC1 (stereo not drawn) [Compound 112] | 0.08 | – | –
CC(C)CCCCCCCOC(=O)CCC(C)(C)CCCC(CCCC(C)(C)CCC(=O)OCCCCCCCC(C)C)OC(=O)CCCN(C)C [Compound 127] | 0.05 | – | –
CCCCCCCCCOC(=O)C(C)(C)CCCCCC(CCCCCC(C)(C)C(=O)OCCCCCCCCC)OC(=O)C1CCN(C(C)C)CC1 [Compound 103] | 0.04 | – | –
CCCCCCCCCCOC(=O)C(C)(C)CCCCCC(CCCCCC(C)(C)C(=O)OCCCCCCCCCC)OC(=O)C1CCN(C)CC1 [Compound 99] | 0.05 | – | –
CCCCCCCC(CCCCCCC)COC(=O)CCC(C)(C)CCCC(CCCC(C)(C)CCC(=O)OCC(CCCCCCC)CCCCCCC)OC(=O)CCCN(C)C [Compound 129] | 0.06 | – | –
CCCCCCCCOC(=O)C(C)(C)CCCCCC(CCCCCC(C)(C)C(=O)OCCCCCCCC)OC(=O)C1CCN(C(C)C)CC1 [Compound 101] | 0.06 | – | –
CCCCCCCCCSC(=O)C(C)(C)CCCCCC(CCCCCC(C)(C)C(=O)OCC#CCCC(CCCC)CCCC)OC(=O)CCCN(C)C (stereo not drawn) [Compound 119] | 0.05 | 80.98 nm | 86.92%
CCCCCCCCCOC(=O)C(C)(C)CCCCCC(CCCCCC(C)(C)C(=O)OCCCCCCCCC)OC(=O)C1CCN(C)CC1 [Compound 102] | 0.03 | – | –
CCCCCCCC#CCOC(=O)C(C)(C)CCCCCC(CCCCCC(C)(C)C(=O)OCCCC(CCCCC)CCCCC)OC(=O)CCCN(C)C (stereo not drawn) [Compound 115] | 0.04 | – | –
CCCCCCCCCOC(=O)C(C)(C)CCCCCC(CCCCCC(C)(C)C(=O)OCC(CCCCC)CCCCCCC)OC(=O)CC1CCN(CCO)CC1 (stereo not drawn) [Compound 114] | 0.04 | – | –
CCCCCCCCCCSC(=O)C(C)(C)CCCCCC(CCCCCC(C)(C)C(=O)OCCCCCCCCC)OC(=O)CCCN(C)C (stereo not drawn) [Compound 40] | 0.05 | – | –
CCCCCCCCCOC(=O)C(C)(C)CCCCCCC(CCCCCCC(C)(C)C(=O)OCC(CCCCC)CCCCCCC)OC(=O)CCCCN(C)C (stereo not drawn) [Compound 126] | 0.06 | – | –
CCCCCCCCCCOC(=O)C(C)(C)CCCCCC(CCCCCC(C)(C)C(=O)OCCCCCCCCCC)OC(=O)CCN1CCOCC1 [Compound 90] | 0.05 | – | –

Compound | Particle size dispersity (PDI) [1] | Particle size (nm) ([1]; LNP ionizable lipid:cholesterol:DSPC:DMG-PEG2000 50:38.5:10:1.5, N/P 6, luciferase mRNA) | Encapsulation efficiency (%) [2]
CCCCCCCCCSC(=O)C(C)(C)CCCCCC(CCCCCC(C)(C)C(=O)SCCCCCCCCC)OC(=O)CC1CCN(C)CC1 [Compound 108] | 0.05 | – | –
CCCCCCCCOC(=O)C(C)(C)CCCCCC(CCCCCC(C)(C)C(=O)OCCCCCCCC)OC(=O)C1CCN(C)CC1 [Compound 100] | 0.07 | – | –
CCCCCCCCCCOC(=O)C(C)(C)CCCCC(CCCCC(C)(C)C(=O)OCC(CCCCC)CCCCCCC)OC(=O)CCCN(C)C (stereo not drawn) [Compound 123] | 0.05 | – | –
CCCCCCCCCOC(=O)C(C)(C)CCCCCC(CCCCCC(C)(C)C(=O)OCC(CCCCC)CCCCCCC)OC(=O)CC1CCN(C)CC1 (stereo not drawn) [Compound 111] | 0.06 | – | –
CCCCCCCCCCOC(=O)C(C)(C)CCCCCC(CCCCCC(C)(C)C(=O)OCCCCCCCCCC)OC(=O)CN1CCOCC1 [Compound 91] | 0.05 | – | –
CCCCCCCCCCSC(=O)C(C)(C)CCCCCC(CCCCCC(C)(C)C(=O)SCCCCCCCCCC)OC(=O)C1CCN(C)CC1 [Compound 104] | 0.06 | – | –
CCCCCCC#CCOC(=O)C(C)(C)CCCCCC(CCCCCC(C)(C)C(=O)OCCCCCCCCC)OC(=O)CCCN(C)C (stereo not drawn) [Compound 42] | 0.07 | – | –
CCCCCCCC#CCOC(=O)C(C)(C)CCCCCC(CCCCCC(C)(C)C(=O)OCC(CCCCC)CCCCCCC)OC(=O)CCCN(C)C (stereo not drawn) [Compound 116] | 0.05 | – | –
CCCCCCCCCOC(=O)C(C)(C)CCCCCC(CCCCCC(C)(C)C(=O)OCCCCCCCCC)OC(=O)CC1CCN(CCO)CC1 [Compound 113] | 0.03 | – | –
CCCCC/C=C\C/C=C\CCCCCCCCC(CCCCCCCC/C=C\C/C=C\CCCCC)OC(=O)CCCN(C)C [DLin-MC3-DMA, reference compound] | 0.04 | – | 95.62%
CCCCCCCCCCOC(=O)C(C)(C)CCCCCC(CCCCCC(C)(C)C(=O)OCCCCCCCCCC)OC(=O)CCN1CCCC1 [Compound 92] | 0.05 | – | –
CCCCCCCCCSC(=O)C(C)(C)CCCCCC(CCCCCC(C)(C)C(=O)SCCCCCCCCC)OC(=O)C1CCN(C(C)C)CC1 [Compound 107] | 0.05 | – | –
CCCCC(CC#CCOC(=O)C(C)(C)CCCCCC(CCCCCC(C)(C)C(=O)OCC#CCC(CCCC)CCCC)OC(=O)CCCN(C)C)CCCC [Compound 117] | 0.06 | – | –
CCCCCCCCCOC(=O)CCCCCCC(CCCCCCC(=O)OCCCCCCCCC)OC(=O)CCCN(C)C [D1, reference compound] | 0.18 | – | –
CCCCCCC/C=C\COC(=O)CC(C)(C)CCCCC(CCCCC(C)(C)CC(=O)OCC(CCCCC)CCCCCCC)OC(=O)CCCN(C)C (stereo not drawn) [Compound 98] | 0.13 | – | –
CCCCCCCCCSC(=O)C(C)(C)CCCCCC(CCCCCC(C)(C)C(=O)SCCCCCCCCC)OC(=O)CC1CCN(CCO)CC1 [Compound 110] | 0.01 | – | –
CCCCCCCCCOC(=O)C(C)(C)CCCCCC(CCCCCC(C)(C)C(=O)OCC#CC(CCCCCC)CCCCCC)OC(=O)CCCN(C)C (stereo not drawn) [Compound 118] | 0.07 | – | –
CCCCCCCCCCSC(=O)C(C)(C)CCCCCC(CCCCCC(C)(C)C(=O)SCCCCCCCCCC)OC(=O)C1CCN(C(C)C)CC1 [Compound 105] | 0.05 | – | –
CCCCCCCCCOC(=O)CC(C)(C)CCCCC(CCCCC(C)(C)CC(=O)OCCCCCCCCC)OC(=O)CCCN(C)C [Compound 97] | 0.25 | – | –
